From US11926610B1, “9-(2-hydroxypyridin-3-yl)10-(2-hydroxyethyl)-3,6-diphenyl-3,4,6,7,9,10-hexahydroacridine1,8(2H,5H)-dione as an antimicrobial compound” (KING FAISAL UNIVERSITY, priority 2023, dated 2024)

What was measured:
Format in all cases: cell-based
Conditions in all cases: after 10, 20, 40 and 60 minutes at all dilutions 1:100, 1:200, 1:400, 1:800
Candida albicans = test: Antimicrobial screening by agar dilution, Candida albicans
Experimental: (§1) The antibacterial properties of the synthesized compound 9-(2-hydroxypyridin-3-yl)-10-(2-hydroxyethyl)-3,6-diphenyl-3,4,6,7,9,10-hexahydroacridine1,8(2H,5H)-dione were studied by the method of agar dilution. Test solutions of each compound was prepared in concentration of 1% using dimethylformamide as a solvent then they are diluted in physiological solution to obtain the final experimental dilutions 1:100, 1:200, 1:400, 1:800. The effect of these substances are compared with furacillin in a controllable study. The testing microbes used were gram positive bacteria Staphylococcus aureus, gram negative bacteria Pseudomonas aeruginosa and Escherichia coli and Candida albicans fungus. The experiments used for this survey were meat-pentonlu agar (EPA) for cultivation of bacteria and Saburo environment for the fungus. Each experiment used 1 mL of test solution on each plate […]. Two drops of emulsified with microbes feel were added. All experimental samples were taken from the agar after 10, 20, 40, 60 minutes in the environment on the basis of Patrk planted. The bacteria were cultivated at a temperature of 37° C. for 1 day and the mushroom was kept in a thermostat for 2 hours at a temperature of 28° C. Then results were checked.

Pseudomonas aeruginosa = test: Antimicrobial screening by agar dilution, Pseudomonas aeruginosa
Experimental: as §1

Staphylococcus aureus = test: Antimicrobial screening by agar dilution, Staphylococcus aureus
Experimental: as §1

Escherichia coli = test: Antimicrobial screening by agar dilution, Escherichia coli
Experimental: as §1

Measured: inhibition activity (in words)

O=C1CC(c2ccccc2)CC2=C1C(c1cccnc1O)C1=C(CC(c3ccccc3)CC1=O)N2CCO (stereo not shown) [9-(2-hydroxypyridin-3-yl)-10-(2-hydroxyethyl)-3,6-diphenyl-3,4,6,7,9,10-hexahydroacridine1,8(2H,5H)-dione]
highest inhibition activity: all assays above
